# Test results published in patent US20250177412A1, “SMALL-MOLECULE INHIBITORS TARGETING THE BOB1/OCT1 INTERFACE” (NANTES UNIVERSITE, priority 2022, published 2025).
# Read-outs that look alike come from different tables or passages of the source.
# Key:
# [1] = tested on: CD4+CD25- effector T cells; experiment: T cell suppression assay (B cell / CD4+CD25- T cell co-culture); assay type: cell-based, human; details: for inhibition at 10 µM: Homo sapiens, T-cell, read-out: T-cell proliferation (percentage inhibition)
# Method: B cells were kept unstimulated (B resting) or stimulated (B expanded) for 24 hours with the expansion mixture containing F(ab′)2 anti-BCR, CpG ODN, CD40L, IL-2, and IL-21. FIG. 6A-B show the expression level of granzyme B measured as frequency (FIG. 6A) and by the MFI (FIG. 6B) in DMSO-treated (compound 005-) and 10 μM compound 005-treated resting (open circles) and expanded for […] (closed circles) B cells. FIG. 6C-G show resting and expanded B cells washed with fresh medium and co-cultured with autologous CPD-labelled CD4^+CD25^− effector T cells for 3 days in the presence of anti-CD3/CD28 Dynabeads. compound 005 was added to the B cells only during 24-hours of activation with the expansion mixture (FIG. 6C-D), followed by daily supplementation during three days of co-culture (FIG. 6E-G). Representative offset histogram overlays showing median fluorescence intensity of staining of gated live […] with cell proliferation dye (CPD) (FIGS. 6C, 6E and 6F). The percentage of proliferating cells is indicated for one representative donor. FIGS. 6D and 6G show corresponding summarized data for the percentage inhibition of proliferation of anti-CD3/CD28-activated CD4^+CD25^− T cells co-cultured with resting (open circles) or expanded (closed circles) B cells without BOB1 inhibitor (DMSO-treated control) or in the presence of 10 μM compound 005. Bars indicate the mean±SD. ** P<0.01, *** P<0.001. FIG. 6H-J Expression values of POU2AF1 (FIG. 6H), POU2F1 (FIG. 6I), and POU2F2 (FIG. 6J) genes encoding BOB1, OCT1 and OCT2, respectively, extracted from scRNA-seq data on B cells stimulated toward regulatory (expanded) or unstimulated (rested). Data are represented with bar plots as mean+SD of non-zero values or with dot plots represented as a percentage of positive cells (FIG. 6H-J) or the average expression in each condition (FIG. 6K). P-values are adjusted to the number of expressed genes in the dataset.
# Cells were resuspended in PBS and labelled with Cell Proliferation Dye eFluor 450 (CPD) (eBioscience) at a final concentration of 10 μM at 37° C. for 10 min, kept on ice for 5 min, and washed twice with 10 mL of ice-cold RPMI 1640 10% FCS medium.
# Primary total human B cells (1×10^6 cells/mL) were prestimulated for ˜24 h with the cocktail containing 10 ng/mL of IL-21 (Miltenyi Biotec), 5 μg/mL of F(ab′)2 anti-BCR Abs (Jackson ImmunoResearch Laboratories Inc.), 50 ng/ml of CD40L (R&D systems), 1 μg/mL of CpG oligonucleotides (ODN 2006, Invivogen), and 50 U/mL of IL-2 (Novartis) as previously described, in the presence of vehicle (DMSO) or 10 μM compound 005. […] The capacity of B cells to suppress effector T cell proliferation was assessed as previously described. […] T cell proliferation was evaluated as the percentage of CPD-low T cells on day 3. […]
# B cells = experiment: B cell apoptosis by intracellular active caspase-3 staining; assay type: cell-based; details: for percentage of caspase-3 positive B cells: day 7, mean±SD
# Method: FIG. 5E-F show corresponding summarized data (n=8) for the frequency of caspase-3^+CD38^+/− non-plasmablasts (FIG. 5E) and caspase-3^+CD20^lowCD38^++ plasmablasts (FIG. 5F) at Day 7. […] Error bars are mean±SD. P values were determined with one-way ANOVA with Geisser-Greenhouse's multiple comparisons test.
# B cells were stimulated to differentiate into plasmablasts using a two-phase cell culture protocol as previously described. Briefly, B cells were seeded at 4×10^5 cells/mL in 24-well plates and activated during 4 days with 50 ng/mL recombinant human soluble CD40L (R&D Systems), 2.5 μg/mL CpG oligodeoxynucleotide (ODN) 2006 (Amidogen or Cayla Invivogen), 2 μg/mL F(ab′)2 fragment goat anti-human IgA+IgG+IgM (H+L) polyclonal Abs (anti-BCR) (Jackson ImmunoResearch Laboratories), and 50 U/mL human IL-2 (SARL Pharmaxie or Novartis). Day 4-activated B cells were washed and cultured at the same concentration for three additional days in a fresh medium containing 50 U/mL human IL-2, 10 ng/mL human IL-4 (R&D Systems), and 10 ng/mL human IL-10 (R&D Systems) to induce B cell differentiation into plasmablasts. At days 0, 4 and 7, B cells were stained with viability marker LIVE/DEAD Fixable Aqua Dead Cell Stain (Thermofisher) to identify dead cells, followed by extracellular staining with anti-human mAbs: anti-CD20 FITC, anti-IgD BUV395, anti-CD27 BUV737, anti-CD38 BV605 (all from BD Biosciences) and analyzed by flow cytometry (FACSCelesta™, BD Biosciences). In some experiments, B cell apoptosis was evaluated by intracellular active caspase-3 staining (Caspase-3-PE, BD Biosciences).
structure (smiles),measurement,setting,value
"Cc1ccc(NC(=O)C2CN(c3nc(NCCCc4ccc(F)cc4)nc(NCCC(=O)O)n3)c3ccccc3O2)cc1Cl (stereo not drawn) [compound 005, 3-((4-(2-((3-chloro-4-methylphenyl)carbamoyl)-2,3-dihydro-4H-benzo[b][1,4]oxazin-4-yl)-6-((3-(4-fluorophenyl)propyl)amino)-1,3,5-triazin-2-yl)amino)propanoic acid]",suppressive capacity of B expanded,[1]; 10 μM during the 24-hours pre-stimulation phase only,did not affect
same,suppression of effector T-cell proliferation,"[1]; 10 μM, co-cultures of T cells and B expanded",79.7±4.9
same,inhibition at 10 µM,"[1]; 72 h, 10 μM, T cells only, 3 days",53.7 ± 5.8%
same,inhibition at 10 µM,"[1]; 10 μM, co-cultures of T cells and B resting",52.1 ± 7.1%
same,percentage of caspase-3 positive B cells,B cells; 5 μM,33.9±15.5%
same,percentage of caspase-3 positive B cells,B cells; 10 μM,25.6±7.5%
same,percentage of caspase-3 positive B cells,B cells; 15 μM,30.8±7.9%
same,frequencies of caspase-3 positive cells,"B cells; activation phase (days 0-4), even at high concentrations",did not affect
same,susceptibility to apoptosis of CD20loCD38hi plasmablast and CD20+CD38+/- non-plasmablast populations,B cells; day 7,reduced susceptibility to apoptosis
